Assay results taken from US4206215A, “Antimicrobial bis-[4-(substituted-amino)-1-pyridinium]alkanes” (Sterling Drug Inc., priority 1977, dated 1980).
Like-named read-outs stand apart in the source and are kept apart here.

Assays:
Ps. aerug. MGH-2 = assay: In vitro antibacterial activity, MIC (modified Autotiter method); assay type: cell-based, Pseudomonas aeruginosa; details: 18-20 hours at 37° C.; for MIC: Pseudomonas aeruginosa, 20 h, read-out: MIC Ps. aerug. MGH-2
How it was run: (§1)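 MIC by modified Autotiter twofold broth dilution from a 1,000 mcg./ml. compound solution in inoculated semisynthetic glucose medium. Final drug concentrations ranged from 500 to 0.06 mcg./ml.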

S. Aureus Smith = assay: as above; assay type: cell-based, Staphylococcus aureus; details: 18-20 hours at 37° C.; for MIC: Staphylococcus aureus, 20 h, read-out: MIC S. Aureus Smith
How it was run: as §1

C. albicans Wisc. = assay: In vitro antifungal activity, MIC (modified Autotiter method); assay type: cell-based, Candida albicans; details: 18-20 hours at 37° C.; for MIC: Candida albicans, 20 h, read-out: MIC C. albicans Wisc.
How it was run: as §1

C. albicans 10231 = assay: as above; assay type: cell-based, Candida albicans; details: 18-20 hours at 37° C.; for MIC: Candida albicans, 10231, 20 h, read-out: MIC C. albicans 10231
How it was run: as §1

A. niger 16404 = assay: as above; assay type: cell-based, Aspergillus niger; details: 18-20 hours at 37° C.
How it was run: as §1

T. menta. 9129 = assay: as above; assay type: cell-based, Trichophyton mentagrophytes; details: 18-20 hours at 37° C.; for MIC: Trichophyton mentagrophytes, 20 h, read-out: MIC T. menta. 9129
How it was run: as §1

[1] = test system: young adult male Swiss-Webster strain albino mice; assay: Acute oral toxicity (ALD50); assay type: in vivo
Description: (§2) The acute oral toxicity (ALD50) of several representative examples was determined as follows: Groups of 3 young adult male Swiss-Webster strain albino mice were fasted approximately 4 hours before medication and then medicated once orally by stomach tube.

S. pyogen. C203 = assay: In vitro antibacterial activity, MIC (modified Autotiter method); assay type: cell-based, Streptococcus pyogenes; details: 18-20 hours at 37° C.; for MIC: Streptococcus pyogenes, 20 h, read-out: MIC S. pyogen. C203
How it was run: as §1

P. mirab. MGH-1 = assay: as above; assay type: cell-based, Proteus mirabilis; details: 18-20 hours at 37° C.; for MIC: Proteus mirabilis, 20 h, read-out: MIC P. mirab. MGH-1
How it was run: as §1

K. pneum. 39645 = assay: as above; assay type: cell-based, Klebsiella pneumoniae; details: 18-20 hours at 37° C.; for MIC: Klebsiella pneumoniae, 20 h, read-out: MIC K. pneum. 39645
How it was run: as §1

E. coli Vogel = assay: as above; assay type: cell-based, Escherichia coli; details: 18-20 hours at 37° C.; for MIC: Escherichia coli, 20 h, read-out: MIC E. coli Vogel
How it was run: as §1

E. coli 100/B22 = assay: as above; assay type: cell-based, Escherichia coli; details: for MIC E. coli 100/B22: 18-20 hours at 37° C.; for MIC: Escherichia coli, 100/B22, 20 h, read-out: MIC E. coli 100/B22, 18-20 hours at 37° C.
How it was run: as §1

E. coli AB1932-1 = assay: as above; assay type: cell-based, Escherichia coli; details: 18-20 hours at 37° C.; for MIC: Escherichia coli, AB19321, 20 h, read-out: MIC E. coli AB1932-1
How it was run: as §1

[2] = test system: Streptococcus mutans OMZ-61; assay: Dental plaque-preventive effectiveness in the presence of sterile human saliva (50%); assay type: cell-based; details: 50% sterile human saliva
Description: The dental plaque preventive activity of certain of the compounds of the present invention was determined by measuring the ability of these compounds to inhibit the production of dental plaque by Streptococcus mutans OMZ-61 as follows:
A culture medium for the plaque-producing Streptococcus mutans OMZ-61 containing 1.5 g. of BBL beef extract, 5 g. of sodium chloride, 10 g. of dehydrated trypticase, 5 g. of sucrose and sufficient distilled water to give a total volume of 1000 ml. is adjusted to pH 7.0 and sterilized by membrane filtration. The medium is dispensed aseptically in 10-ml. aliquots into 150×16 mm. test tubes and stored at refrigeration temperature until used.
Two concentrations of the compound to be tested are prepared by dissolving 100 mg. of the compound in 1 ml. of distilled water with the aid of sufficient 0.1 N sodium hydroxide, 10% dimethylsulfoxide or 10% N,N-dimethylformamide and diluting the resulting solution to 10 ml. with distilled water. This 1.0% solution and a 1:10 dilution in distilled water (0.1%) are sterilized by membrane filtration before use.
A sterile piece of plaque-free natural tooth enamel or synthetic hydroxylapatite is suspended in each concentration of compound for two 1-minute periods, each followed by a 1-minute air drying period. Each piece is then suspended and agitated for 5 minutes in individual test tubes containing sterile distilled water (rinse). They are then suspended in 10 ml. of liquid beef extract medium to which has been added 0.3 ml. of a 24-hr. anaerobic culture of Streptococcus mutans. The tubes containing the "treated" hydroxylapatite and the Streptococcus mutans are then incubated anaerobically at 37° C. for 24 hours. The same process of two 1-minute soaks in the solution of compound, each followed by 1 minute of air drying and the final 5-minute rinse is repeated before once again suspending the hydroxylapatite in a fresh tube containing 10 ml. of beef extract medium and 0.3 ml. of inoculum. At the end of the second 24-hour period, each piece of hydroxylapatite is rinsed for 1 minute in 3 successive tubes of distilled water. These are then suspended for 1 minute in a solution of F, D & C Red No. 3 dye. This staining procedure is used in order to identify more easily the development of plaque after the 48-hour period of exposure to the plaque-producing organism. The staining period is followed by another 10-second rinse to remove excess dye. Any plaque formation stains a brilliant pink. […] Active compounds are tested at successively lower doses in order to determine the minimum effective concentration. On some occasions, the interference of plaque production is caused by the inhibition of growth of the organism in the culture medium because the compound has been leached from the hydroxylapatite to produce an antibacterial level in the medium. When this occurs, the compound is tested at lower concentrations until the growth of the organism in the surrounding medium is equal to that in the nonmedicated control culture. Plaque may or may not be formed at these lower concentrations.
Dental plaque-preventive effectiveness in the presence of sterile human saliva (50%) was determined for representative examples.

[3] = Acute oral toxicity (ALD50); assay type: in vivo; details: mouse, in vivo, po, mice, read-out: 7-Day ALD50
Description: as §2

[4] = 125 mg/kg oral, suspension in 1% G.T.
[5] = 500 mg/kg oral, suspension in 1% G.T.
[6] = 1000 mg/kg oral, suspension in 1% G.T.
[7] = 1250 mg/kg (so in the source) oral, suspension in 1% G.T.
[8] = 250 mg/kg oral, suspension in 1% G.T.
[9] = suspension in 1% gum tragacanth
[10] = 125 mg/kg oral, aqueous solution
[11] = 250 mg/kg oral, aqueous solution
[12] = 500 mg/kg oral, aqueous solution
[13] = 1000 mg/kg oral, aqueous solution

Structure (SMILES): CCCCCCCNc1cc[n+](CCCCCCCCCCCC[n+]2ccc(NCCCCCCC)cc2)cc1 [Example 4, 1,12-bis-[4-(heptylamino)-1-pyridinium]dodecane dichloride]
- MIC Ps. aerug. MGH-2 (Ps. aerug. MGH-2): 3.9 µg/mL
- MIC S. Aureus Smith (S. Aureus Smith): 0.25 µg/mL
- MIC C. albicans Wisc. (C. albicans Wisc.): 1.95 µg/mL
- MIC C. albicans 10231 (C. albicans 10231): 1.95 µg/mL
- MIC A. niger 16404 (A. niger 16404): 7.8 µg/mL
- MIC T. menta. 9129 (T. menta. 9129): 0.5 µg/mL
- Mortality 7 Days [1, 4]: 0/3
- Mortality 24 Hrs [1, 4]: 0/3
- Mortality 7 Days [1, 5]: 0/3
- Mortality 24 Hrs [1, 5]: 0/3
- Mortality 7 Days [1, 6]: 0/3
- Mortality 24 Hrs [1, 6]: 0/3
- Mortality 7 Days [1, 7]: 0/3
- Mortality 24 Hrs [1, 7]: 0/3
- 7-Day ALD50 ([1]; oral, suspension in 1% gum tragacanth, 10080 min): > 1000 mg/kg
- MIC S. pyogen. C203 (S. pyogen. C203): 1.0 µg/mL
- MIC P. mirab. MGH-1 (P. mirab. MGH-1): 1.95 µg/mL
- MIC K. pneum. 39645 (K. pneum. 39645): 1.95 µg/mL
- MIC E. coli Vogel (E. coli Vogel): 0.5 µg/mL
- MIC E. coli 100/B22 (E. coli 100/B22): 0.5 µg/mL
- MIC E. coli AB1932-1 (E. coli AB1932-1): 1.0 µg/mL
- Dental Plaque Preventive Activity in 50% saliva Minimum Effective Conc. (%) [2]: Ca. 0.005%

Structure (SMILES): CCCCCCCCNc1cc[n+](CCCCCC[n+]2ccc(NCCCCCCCC)cc2)cc1 [Example 14]
- MIC Ps. aerug. MGH-2 (Ps. aerug. MGH-2): 31.3 µg/mL
- MIC S. Aureus Smith (S. Aureus Smith): 0.25 µg/mL
- MIC C. albicans Wisc. (C. albicans Wisc.): 1.95 µg/mL
- MIC C. albicans 10231 (C. albicans 10231): 1.95 µg/mL
- MIC A. niger 16404 (A. niger 16404): 15.6 µg/mL
- MIC T. menta. 9129 (T. menta. 9129): 1.0 µg/mL
- Mortality 7 Days [1, 4]: 0/3
- Mortality 24 Hrs [1, 4]: 0/3
- Mortality 7 Days [1, 8]: 0/3
- Mortality 24 Hrs [1, 8]: 0/3
- Mortality 7 Days [1, 5]: 0/3
- Mortality 24 Hrs [1, 5]: 0/3
- Mortality 7 Days [1, 6]: 1/3
- Mortality 24 Hrs [1, 6]: 0/3
- LD50 at 168 h [3, 9]: > 1000 mg/kg
- MIC S. pyogen. C203 (S. pyogen. C203): 0.5 µg/mL
- MIC P. mirab. MGH-1 (P. mirab. MGH-1): 15.6 µg/mL
- MIC K. pneum. 39645 (K. pneum. 39645): 1.95 µg/mL
- MIC E. coli Vogel (E. coli Vogel): 1.0 µg/mL
- MIC E. coli 100/B22 (E. coli 100/B22): 0.5 µg/mL
- MIC E. coli AB1932-1 (E. coli AB1932-1): 0.5 µg/mL
- Dental Plaque Preventive Activity in 50% saliva Minimum Effective Conc. (%) [2]: 0.1%

Structure (SMILES): CCCCCCCCNc1cc[n+](CCCCCCCCCC[n+]2ccc(NCCCCCCCC)cc2)cc1 [10A,B, 1,10-bis-[4-(octylamino)-1-pyridinium]decane dichloride]
- MIC (Ps. aerug. MGH-2): 3.9 µg/mL
- MIC (S. Aureus Smith): 0.5 µg/mL
- MIC (C. albicans Wisc.): 1.95 µg/mL
- MIC (C. albicans 10231): 1.95 µg/mL
- MIC A. niger 16404 (A. niger 16404): 7.8 µg/mL
- MIC (T. menta. 9129): 1.95 µg/mL
- Mortality 7 Days [1, 10]: 0/3
- Mortality 24 Hrs [1, 10]: 0/3
- Mortality 7 Days [1, 11]: 0/3
- Mortality 24 Hrs [1, 11]: 0/3
- Mortality 7 Days [1, 12]: 0/3
- Mortality 24 Hrs [1, 12]: 0/3
- Mortality 7 Days [1, 13]: 0/3
- Mortality 24 Hrs [1, 13]: 0/3
- LD50 at 168 h ([3]; aqueous solution): > 1000 mg/kg
- MIC (S. pyogen. C203): 1 µg/mL
- MIC (P. mirab. MGH-1): 3.9 µg/mL
- MIC (K. pneum. 39645): 1.95 µg/mL
- MIC (E. coli Vogel): 1.95 µg/mL
- MIC (E. coli 100/B22): 1 µg/mL
- MIC (E. coli AB1932-1): 1 µg/mL
- Dental Plaque Preventive Activity in 50% saliva Minimum Effective Conc. (%) ([2]; listed as 10 A, B): 0.005%

Structure (SMILES): CCCCCCCCNc1cc[n+](CCCCCCCCC[n+]2ccc(NCCCCCCCC)cc2)cc1 [Example 44A, 1,9-bis-[4-(octylamino)-1-pyridinium]nonane dibromide]
- MIC (Ps. aerug. MGH-2): 3.9 µg/mL
- MIC (S. Aureus Smith): 1 µg/mL
- MIC (C. albicans Wisc.): 1.95 µg/mL
- MIC (C. albicans 10231): 1 µg/mL
- MIC (A. niger 16404; Aspergillus niger, 16404, 20 h, read-out: MIC A. niger 16404): 3.9 µg/mL
- MIC (T. menta. 9129): 1 µg/mL
- Mortality 7 Days [1, 4]: 0/3
- Mortality 24 Hrs [1, 4]: 0/3
- Mortality 7 Days [1, 8]: 0/3
- Mortality 24 Hrs [1, 8]: 0/3
- Mortality 7 Days [1, 5]: 0/3
- Mortality 24 Hrs [1, 5]: 0/3
- Mortality 7 Days [1, 6]: 0/3
- Mortality 24 Hrs [1, 6]: 0/3
- LD50 at 168 h [3, 9]: > 1000 mg/kg
- MIC (S. pyogen. C203): 0.5 µg/mL
- MIC (P. mirab. MGH-1): 15.6 µg/mL
- MIC (K. pneum. 39645): 1.95 µg/mL
- MIC (E. coli Vogel): 1 µg/mL
- MIC (E. coli 100/B22): 1 µg/mL
- MIC (E. coli AB1932-1): 1 µg/mL
- Dental Plaque Preventive Activity in 50% saliva Minimum Effective Conc. (%) [2]: 0.005%
